Experimental data from ChEMBL document CHEMBL5131431, “Effect of removal of the 14-hydroxy group on the affinity of the 4,5-epoxymorphinan derivatives for orexin and opioid receptors” (Bioorg Med Chem Lett, 2022).

What was measured:
Mu-type opioid receptor = Mu-type opioid receptor (Homo sapiens, UniProt P35372); experiment: Displacement of [3H]DAMGO from human MOR expressed in HEK293 cell membrane; assay type: cell membranes
[1] = biological target: Kappa-type opioid receptor (Homo sapiens, UniProt P41145); experiment: Displacement of […] from human KOR expressed in HEK293 cell membrane; assay type: cell membranes
[2] = biological target: T1, Orexin/Hypocretin receptor type 1 (Homo sapiens, UniProt O43613); experiment: Binding affinity to OX1R (unknown origin) by calcium assay
T1 sequence (O43613 whole entry): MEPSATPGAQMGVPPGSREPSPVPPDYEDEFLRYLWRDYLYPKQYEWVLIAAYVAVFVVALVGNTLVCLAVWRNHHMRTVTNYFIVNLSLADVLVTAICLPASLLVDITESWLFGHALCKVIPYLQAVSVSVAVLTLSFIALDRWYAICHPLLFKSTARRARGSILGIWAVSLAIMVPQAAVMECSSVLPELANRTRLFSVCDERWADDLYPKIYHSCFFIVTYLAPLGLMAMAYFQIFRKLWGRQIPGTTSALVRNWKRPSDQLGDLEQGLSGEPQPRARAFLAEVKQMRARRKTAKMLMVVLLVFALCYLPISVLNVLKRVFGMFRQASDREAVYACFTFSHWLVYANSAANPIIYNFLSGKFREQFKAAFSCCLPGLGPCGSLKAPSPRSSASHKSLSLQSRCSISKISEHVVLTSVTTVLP

[3] = biological target: Delta-type opioid receptor (Homo sapiens, UniProt P41143); experiment: Displacement of […] from human DOR expressed in HEK293 cell membrane; assay type: cell membranes
Homo sapiens [4] = species on record: Homo sapiens; experiment: Selectivity index, ratio of Ki for displacement of […] from human DOR expressed in HEK293 cell membrane to displacement of […] from human KOR expressed in HEK293 cell membrane
Homo sapiens [5] = species on record: Homo sapiens; experiment: Selectivity index, ratio of Ki for displacement of [3H]DAMGO from human MOR expressed in HEK293 cell membrane to displacement of […] from human KOR expressed in HEK293 cell membrane

Mu-type opioid receptor, sequence (P35372 whole entry): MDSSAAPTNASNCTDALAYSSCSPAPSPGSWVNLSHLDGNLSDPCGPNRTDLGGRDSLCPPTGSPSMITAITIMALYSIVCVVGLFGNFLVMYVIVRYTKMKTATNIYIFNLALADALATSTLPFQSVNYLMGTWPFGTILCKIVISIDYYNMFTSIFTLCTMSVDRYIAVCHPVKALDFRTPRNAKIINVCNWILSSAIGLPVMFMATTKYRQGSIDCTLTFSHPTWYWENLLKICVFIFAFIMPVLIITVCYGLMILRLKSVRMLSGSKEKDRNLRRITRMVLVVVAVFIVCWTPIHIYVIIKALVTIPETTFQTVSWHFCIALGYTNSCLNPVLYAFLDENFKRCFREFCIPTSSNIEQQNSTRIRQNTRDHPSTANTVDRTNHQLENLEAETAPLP
Delta-type opioid receptor, sequence (P41143 whole entry): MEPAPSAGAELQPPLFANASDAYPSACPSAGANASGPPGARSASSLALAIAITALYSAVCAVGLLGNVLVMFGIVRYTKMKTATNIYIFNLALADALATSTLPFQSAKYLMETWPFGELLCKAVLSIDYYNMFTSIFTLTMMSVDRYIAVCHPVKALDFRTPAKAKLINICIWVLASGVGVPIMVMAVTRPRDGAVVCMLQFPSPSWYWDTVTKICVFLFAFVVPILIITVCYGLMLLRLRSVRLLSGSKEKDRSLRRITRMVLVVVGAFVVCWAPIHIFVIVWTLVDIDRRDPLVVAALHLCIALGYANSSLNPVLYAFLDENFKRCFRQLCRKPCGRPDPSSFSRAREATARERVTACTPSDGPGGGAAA
Kappa-type opioid receptor, sequence (P41145 whole entry): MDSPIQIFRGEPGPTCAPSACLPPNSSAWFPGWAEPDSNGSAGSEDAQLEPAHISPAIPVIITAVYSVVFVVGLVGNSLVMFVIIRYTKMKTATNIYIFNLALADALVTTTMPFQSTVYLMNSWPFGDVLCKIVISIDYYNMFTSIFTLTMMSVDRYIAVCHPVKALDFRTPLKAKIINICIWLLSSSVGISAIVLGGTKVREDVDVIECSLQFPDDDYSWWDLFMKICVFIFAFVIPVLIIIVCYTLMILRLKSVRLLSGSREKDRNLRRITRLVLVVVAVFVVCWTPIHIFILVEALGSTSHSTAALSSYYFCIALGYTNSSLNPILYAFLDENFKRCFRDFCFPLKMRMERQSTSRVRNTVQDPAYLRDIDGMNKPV

## CN(C(=O)/C=C/c1ccoc1)[C@@H]1CC=C2[C@H]3Cc4ccc(O)c5c4[C@@]2(CN3CC2CC2)[C@H]1O5
Mu-type opioid receptor
  Ki: > 10000 nM
[1]
  Ki: 1410 nM
[2]
  IC50: > 10000 nM
[3]
  Ki: > 10000 nM

## COc1ccc2c3c1O[C@H]1[C@H](N(C)C(=O)/C=C/c4ccoc4)CCC4[C@@H](C2)N(CC2CC2)C[C@@]341 (some centres undefined)
[2]
  IC50: > 10000 nM

## CN(C(=O)/C=C/c1ccoc1)[C@@H]1CC[C@@]2(O)[C@H]3Cc4ccc(O)c5c4[C@@]2(CN3CC2CC2)[C@H]1O5
Mu-type opioid receptor
  Ki: > 5000 nM
[1]
  Ki: > 5000 nM
[3]
  Ki: > 5000 nM

## CN(C(=O)/C=C/c1ccoc1)[C@@H]1CCC2[C@H]3Cc4ccc(O)c5c4[C@@]2(CN3CC2CC2)[C@H]1O5 (some centres undefined)
Mu-type opioid receptor
  Ki: > 10000 nM
[1]
  Ki: 283 nM
[2]
  IC50: > 10000 nM
[3]
  Ki: > 10000 nM

## COc1ccc2c3c1O[C@H]1[C@H](N(C)C(=O)/C=C/c4ccoc4)CC=C4[C@@H](C2)N(CC2CC2)CC[C@]431
[2]
  Ki: 19 nM

## CN(C(=O)/C=C/c1ccoc1)[C@@H]1CC=C2[C@H]3Cc4ccc(O)c5c4[C@@]2(CCN3CC2CC2)[C@H]1O5
Mu-type opioid receptor
  Ki: 3.57 nM
Homo sapiens [4]
  Ratio Ki: 739
[1]
  Ki: 0.0356 nM
Homo sapiens [5]
  Ratio Ki: 100
[2]
  Ki: 30.5 nM
[3]
  Ki: 26.3 nM

## CN(C(=O)/C=C/c1ccoc1)[C@@H]1CCC2[C@H]3Cc4ccc(O)c5c4[C@@]2(CCN3CC2CC2)[C@H]1O5 (some centres undefined)
Mu-type opioid receptor
  Ki: 0.158 nM
Homo sapiens [4]
  Ratio Ki: 359
[1]
  Ki: 0.0272 nM
Homo sapiens [5]
  Ratio Ki: 5.8
[2]
  Ki: 218 nM
[3]
  Ki: 9.76 nM

## CN(C(=O)/C=C/c1ccoc1)[C@@H]1CC[C@@]2(O)[C@H]3Cc4ccc(O)c5c4[C@@]2(CCN3CC2CC2)[C@H]1O5 [NALFURAFINE]
Mu-type opioid receptor
  Ki: 0.7 nM
[3]
  Ki: 36.5 nM

## COc1ccc2c3c1O[C@H]1[C@H](N(C)C(=O)/C=C/c4ccoc4)CC=C4[C@@H](C2)N(CC2CC2)C[C@]431
[2]
  IC50: > 10000 nM

## COc1ccc2c3c1O[C@H]1[C@H](N(C)C(=O)/C=C/c4ccoc4)CCC4[C@@H](C2)N(CC2CC2)CC[C@@]341 (some centres undefined)
[2]
  Ki: 28.7 nM
